{
  "source": "paper PMC10740580",
  "about": "“Benzothiazole-Phthalimide Hybrids as Anti-Breast Cancer and Antimicrobial Agents” (Antibiotics, 2023)",
  "key": {"BALB/3T3 cells [1]": {"system": "BALB/3T3 cells", "assay": "MTT assay, BALB/3T3 fibroblasts", "format": "cell-based", "conditions": "mouse fibroblasts, read-out: IC50 BALB/3T3 (MTT, lack of toxicity)", "protocol": "(§1) Cells were treated for 24 h, and N-acetylcystein (NAC), a compound well-known for its antioxidant capacity, was used as a reference molecule. […] Compound 3h was able to reduce ROS formation by 61.4 ± 2% at the maximum concentration of 160 μM in the BALB/3T3 cells, as shown by the quantification of fluorescence intensity, proving compound 3h to be a good ROS scavenger.\nThe four cell lines used in this work (MCF-7, MDA-MB-231, MCF-10A, and 3T3-L1) were obtained from the American Type Culture Collection (ATCC, Manassas, VA, USA). All cell lines were maintained at 37 °C in a humidified atmosphere of 95% air and 5% CO2 and periodically screened for contamination. […]\nCell viability was evaluated by means of the 3-(4,5-dimethylthiazol-2-y1)-2,5-diphenyltetra zolium bromide (MTT, Sigma-Aldrich, Milan, Italy) assay. […] Cells were lysed with DMSO after 2 h of incubation at 37 °C, and optical density at 570 nm was then determined with a microplate reader. Using GraphPad Prism 9 software (GraphPad Inc., San Diego, CA, USA), the mean absorbance for each sample was expressed as a percentage over the control and plotted vs. drug concentrations to establish the IC50 values. […]"}, "MDA-MB-231 cells": {"system": "MDA-MB-231 cells", "assay": "Wound-healing assay (cell migration)", "format": "cell-based, human", "conditions": "3h at its IC50 value", "protocol": "Thus, its ability to prevent the migration of MDA-MB-231 was tested by means of the wound-healing assay. Confluent monolayers of cells were cultivated and plated before being scraped to create a wound (see Experimental Section) and treated with compound 3h at concentrations corresponding to its IC50 value (Table 2) for 24 and 48 h, or DMSO (Ctrl). These distinct endpoint times were experimentally defined since MDA-MB-231 cells have a high growth rate and frequently give rise to metastases in vivo. In fact, 48 h were sufficient for the wound closure in the control cells, treated using only the vehicle.\nConfluent monolayers of MDA-MB-231 cells formed after the cells were plated on twelve-well plates and grown in full media. […] A cell imager microscope (JuLi Smart fluorescence, NanoEnTek Inc., Seoul, Republic of Korea) was used to take the pictures. The percentage of wound closure used to express the cell migration toward the wounds was: wound closure%=[(At0−At∆h)÷[…]]×100% for which At0 is the area of wound measured immediately after scratching and At∆h is the area of wound measured 48 h after scratching. […] The collected images were analyzed with the JuLI^TM smart fluorescent cell viewer (NanoEnTek Inc., Seoul, Republic of Korea).\nFigure 3 Wound-healing assay conducted on MDA-MB-231 cells treated with compound 3h or vehicle (Ctrl, DMSO). […] (B): quantitative analysis of wound closure. […]"}, "BALB/3T3 cells [2]": {"system": "BALB/3T3 cells", "assay": "ROS protection assay (DCFH-DA, H2O2-induced)", "format": "cell-based, mouse", "conditions": "160 μM, BALB/3T3, DCFH-DA", "protocol": "as §1\nROS production was detected using the oxidation-sensitive fluorescent probe 2′,7′-dichlorodihydrofluorescein diacetate (DCFH-DA, D6665; Sigma-Aldrich, St. Louis, MO, USA) by modifying the method described by Wang and James. A black 96-well cell culture plate (Costar, Sigma Aldrich, St. Louis, MO, USA) was used to seed viable cells. After 24 h, the cells were treated with different concentrations of compound 3h (0.1–160 µM) for 1 h at 37 °C in 5% CO2. At the end of the treatment, cells were incubated with 2′,7′-dichlorofluorescein diacetate (DCFH-DA) for 30′, used at a concentration of 25 µM, in 5% CO2. […] The formation of fluorescent dichlorofluorescein (DCF), due to the oxidation of DCFH in the presence of ROS, was read at 530 nm using a microplate reader, the Tecan Infinite M1000 Pro (Tecan, Cernusco S.N., Italy), and DMSO medium was used for control cells. The data were analyzed for statistical significance (p < 0.0001) using a one-way ANOVA, followed by Dunnett’s test performed by GraphPad Prism 9. […]"}},
  "data": [
    {"smiles": "O=C1c2ccccc2C(=O)N1c1nc2ccc(Oc3ccccc3)cc2s1", "note": "[3h, 2-[6-Phenoxy-1,3-benzothiazol-2-yl]-1H-isoindole-1,3(2H)-dione]", "values": [
      {"measurement": "IC50", "setting": "BALB/3T3 cells [1]", "value": "> 200", "unit": "µM"},
      {"measurement": "prevention of total wound closure, 24 h", "setting": "MDA-MB-231 cells; 24 h", "value": "~ 23%"},
      {"measurement": "prevention of total wound closure, 48 h", "setting": "MDA-MB-231 cells; 48 h", "value": "~ 26%"},
      {"measurement": "reduction of ROS formation", "setting": "BALB/3T3 cells [2]", "value": "61.4 ± 2", "unit": "%"}
    ]}
  ]
}
